Data: patent US11464770B2, “Anticancer pharmaceutical composition” (NATIONAL CANCER CENTER, priority 2016, dated 2022)
Read-outs that look alike come from different tables or passages of the source.

How the values were obtained:
[1] = system: ovarian cancer cell lines; assay: Cell based assay, cell viability (CellTiter-Glo), ovarian cancer cell lines; conditions: Homo sapiens; OVCAR-3 cells
Method: (§1) Commercially available bladder cancer, prostate cancer, lung cancer, breast cancer, blood cancer, pancreatic cancer, colorectal cancer, brain cancer, neuroblastoma, melanoma, liver cancer, cervical carcinoma, ovarian cancer, renal cancer, and papilloma cell lines were each treated with trypsin-EDTA and cultured, followed by being seeded in each well of a 96 well plate. After 24 hours of treatment at constant temperature, the respective cells were treated with the candidate compound so that a final concentration became 0 to 2 μM. The treated cells were additionally cultured for 72 hours, and cell viability was measured by using an ATP detection method (CellTiter-Glo® Luminescent Cell Viability Assay, Promega).

[2] = system: pancreatic cancer cell lines (e.g. MIA PaCa-2); assay: Cell based assay, cell viability (CellTiter-Glo), pancreatic cancer cell lines; conditions: Homo sapiens
Method: as §1

[3] = pancreatic cancer cell line AsPC-1, 72 hours, read-out: IC50, AsPC-1
[4] = pancreatic cancer cell line BxPC-3, 72 hours, read-out: IC50, BxPC-3
[5] = pancreatic cancer cell line CFPAC-1, 72 hours, read-out: IC50, CFPAC-1
[6] = pancreatic cancer cell line Capan-1, 72 hours, read-out: IC50, Capan-1
[7] = pancreatic cancer cell line Capan-2, 72 hours, read-out: IC50, Capan-2
[8] = pancreatic cancer cell line MIA PaCa-2, 72 hours, read-out: IC50, MIA PaCa-2
[9] = pancreatic cancer cell line PANC-1, 72 hours, read-out: IC50, PANC-1

IC50 [1] [nM]	IC50 [2, 3] [nM]	IC50 [2, 4] [nM]	IC50 [2, 5] [nM]	IC50 [2, 6] [nM]	IC50 [2, 7] [nM]	IC50 [2, 8] [nM]	IC50 [2, 9] [nM]	SMILES
> 2000	> 2000	> 2000	> 10000	> 2000	> 2000	> 2000	> 2000	CC(=O)c1c(SCc2cccc(C#N)c2)[nH]c2c(Br)ccc(Cl)c2c1=O [Compound 27, 3-(((3-acetyl-8-bromo-5-chloro-4-oxo-1,4-dihydroquinolin-2-yl)thio)methyl)benzonitrile]
> 2000	> 2000	> 2000	> 10000	> 2000	> 2000	> 2000	> 2000	CC(=O)c1c(SCC#N)[nH]c2c(Br)ccc(Cl)c2c1=O [Compound 66, 2-((3-acetyl-8-bromo-5-chloro-4-oxo-1,4-dihydroquinolin-2-yl)thio)acetonitrile]
> 2000	> 2000	> 2000	> 10000	> 2000	> 2000	> 2000	> 2000	O=C(c1ccccc1)c1c([S+]([O-])Cc2ccc(S(F)(F)(F)(F)F)cc2)[nH]c2c(F)ccc(F)c2c1=O (stereo not shown) [Compound 87, 3-benzoyl-5,8-difluoro-2-((4-(pentafluoro--sulfanyl)benzyl)sulfinyl)quinolin-4(1H)-one]
730	> 2000	> 2000	> 10000	> 2000	> 2000	1350	> 2000	CC(=O)c1c([S+](C)[O-])[nH]c2c(Cl)ccc(Cl)c2c1=O (stereo not shown) [Compound 6, 3-acetyl-5,8-dichloro-2-(methylsulfinyl)quinolin-4(1H)-one]
> 2000	> 2000	> 2000	> 10000	> 2000	> 2000	> 2000	> 2000	CC(=O)c1c([S+]([O-])Cc2ccc(S(F)(F)(F)(F)F)cc2)[nH]c2c(F)ccc(F)c2c1=O (stereo not shown) [Compound 80, 3-acetyl-5,8-difluoro-2-((4-(pentafluoro--sulfanyl)benzyl)sulfinyl)quinolin-4(1H)-one]
> 2000	> 2000	> 2000	> 10000	> 2000	> 2000	> 2000	> 2000	CC(=O)c1c(SCc2ccc(F)c(Cl)c2)[nH]c2c(Br)ccc(Cl)c2c1=O [Compound 30, 3-acetyl-8-bromo-5-chloro-2-((3-chloro-4-fluorobenzyl)thio)quinolin-4(1H)-one]
580	> 2000	> 2000	> 10000	> 2000	> 2000	1030	> 2000	CC(=O)c1c([S+](C)[O-])n(C(=O)c2ccc(Br)cc2)c2c(Br)ccc(Cl)c2c1=O (stereo not shown) [Compound 9, 3-acetyl-8-bromo-1-(4-bromobenzoyl)-5-chloro-2-(methylsulfinyl)quinolin-4(1H)-one]
> 2000	> 2000	> 2000	> 10000	> 2000	> 2000	> 2000	> 2000	CC(=O)c1c(Sc2ccc(Br)cc2)[nH]c2c(Br)ccc(Cl)c2c1=O [Compound 16, 3-acetyl-8-bromo-2-((4-bromophenyl)thio)-5-chloroquinolin-4(1H)-one]
> 2000	> 2000	> 2000	> 10000	> 2000	> 2000	> 2000	> 2000	CC(=O)c1c([S+]([O-])C(C)c2ccccc2)[nH]c2c(Br)ccc(Cl)c2c1=O (stereo not shown) [Compound 26, 3-acetyl-8-bromo-5-chloro-2-((1-phenylethyl)sulfinyl)quinolin-4(1H)-one]
> 2000	> 2000	> 2000	> 10000	> 2000	> 2000	> 2000	> 2000	CC(=O)c1c([S+]([O-])c2ccccc2)[nH]c2c(Br)ccc(Cl)c2c1=O (stereo not shown) [Compound 13, 3-acetyl-8-bromo-5-chloro-2-(phenylsulfinyl)quinolin-4(1H)-one]
> 2000	> 2000	> 2000	> 10000	> 2000	> 2000	> 2000	> 2000	CC(C)C(=O)c1c([S+]([O-])Cc2ccc(SC(F)(F)F)cc2)[nH]c2c(F)ccc(F)c2c1=O (stereo not shown) [Compound 85, 5,8-difluoro-3-isobutyryl-2-((4-((trifluoromethyl)thio)benzyl)sulfinyl)quinolin-4(1H)-one]
